Structures can show the parent of a compound that is named as a salt.
What was measured:
[1] = target: Human or Rat Histamine H3 Receptor; assay: Binding assay for human or rat Histamine H3 receptor ([3H] R-α-methylhistamine displacement); settings: radioligand [3H] R-α-methylhistamine 3.0 nM; receptor source rat brain frontal cortex or recombinant human cDNA in CHO cells (table does not say which)
Method: The reaction was terminated by rapid vacuum filtration onto the glass fiber filters. Radioactivity trapped onto the filters was determined and compared to the control values in order to ascertain any interactions of the test compound(s) with either cloned human or rat receptor binding site.

Male Wister rats = assay: Object Recognition Task Model; format: in vivo; settings: rat; for Exploration time mean ± S.E.M, Familiar object / Exploration time mean ± S.E.M, Novel object: choice trial T2 24 h after T1
Method: The cognition enhancing properties of compounds of this invention were estimated by using this model.
Male Wister rats (230-280 grams) obtained from N. I. N. (National Institute of Nutrition, Hyderabad, India) was used as experimental animals. Four animals were housed in each cage. Animals were kept on 20% food deprivation before one day and given water ad libitum throughout the experiment and maintained on a 12 hours light/dark cycle. Also the rats were habituated to individual arenas for 1 hour in the absence of any objects.
One group of 12 rats received vehicle (1 mL/Kg) orally and another set of animals received compound of the formula (I) either orally or i.p., before one hour of the familiar (T1) and choice trial (T2).
The experiment was carried out in a 50×50×50 cm open field made up of acrylic. In the familiarization phase, (T1), the rats were placed individually in the open field for 3 minutes, in which two identical objects (plastic bottles, 12.5 cm height×5.5 cm diameter) covered in yellow masking tape alone (a1 and a2) were positioned in two adjacent corners, 10 cms from the walls. After 24 hours of the (T1) trial for long-term memory test, the same rats were placed in the same arena as they were placed in T1 trial. Choice phase (T2) rats were allowed to explore the open field for 3 minutes in presence of one familiar object (a3) and one novel object (b) (Amber color glass bottle, 12 cm high and 5 cm in diameter). Familiar objects presented similar textures, colors and sizes. During the T1 and T2 trial, explorations of each object (defined as sniffing, licking, chewing or having moving vibrissae whilst directing the nose towards the object at a distance of less than 1 cm) were recorded separately by stopwatch. Sitting on an object was not regarded as exploratory activity, however, it was rarely observed.
T1 is the total time spent exploring the familiar objects (a1+a2).
T2 is the total time spent exploring the familiar object and novel object (a3+b).
The object recognition test was performed as described by Ennaceur, A., Delacour, J., 1988, A new one-trial test for neurobiological studies of memory in rats—Behavioural data, Behay. Brain Res., 31, 47-59.

[2] = Rodent Brain Penetration Study; format: in vivo, Male Wister rats; settings: brain / whole blood; Wistar/Male rat, Per Oral, 3 mg/kg, vehicle water; read-out: Brain Penetration Ratio (Cbrain/Cblood)
Method: Three animals were housed in each cage. Animals were given water and food ad libitum throughout the experiment, and maintained on a 12 hours light/dark cycle.
New chemical entity (NCE) was dissolved in suitable vehicle and administered orally (3 or 10 mg/kg). […] Blood and brain tissue were collected and brain was homogenized to yield 20% w/v. Blood was stored at 2-8° C. and brain homogenate was frozen at −20° C. until analysis. The concentrations of NCE in blood and brain were quantified using LC-MS/MS method.
Extents of brain-blood ratio were calculated (Cbrian/Cblood)

[3] = Rodent Pharmacokinetic Study
Method: Male Wistar rats (230-280 grams) obtained from NIN (National Institute of Nutrition, Hyderabad, India) were used as an experimental animal. Three animals were housed in each cage. Animals were kept fasted over night and maintained on a 12 hours light/dark cycle. Three rats were dosed New chemical entity (NCE) orally (3 or 10 mg/kg) and intravenously (1 or 5 mg/kg) on day 0 and day 2.
At each time point blood was collected by jugular vein. Blood was stored at 2-8° C. until analysis. The concentrations of the NCE compound in blood were determined using LC-MS/MS method. Schedule time points: Pre dose 0.08, 0.25, 0.5, 1, 2, 4, 6, 8 and 24 hours after dosing (n=3). The NCE compounds were quantified in blood by partially validated LC-MS/MS method using acetonitrile precipitation technique. […] Study samples were analyzed using calibration samples in the batch and quality control samples spread across the batch.
Pharmacokinetic parameters were calculated by non-compartmental model using software WinNonlin version 5.0.1.

rats = assay: Inhibition of Food Intake; format: in vivo; settings: rats fasted 18 hours, oral treatment 60 minutes before feed, active dose
Method: The anti-obesity properties of compounds of this invention were estimated using this model.
The experiment consisted of 6 days. The rats were adapted to the 18 hours fasting and 6 hours feeding pattern. The animals were housed in a group of three in the cages provided with the fasting grills and was fasted for 18 hours. After 18 hours fasting the rats were separated and placed individually in the cage. Weighed amount of feed was provided to rats for 6 hours and the feed intake at 1 hour, 2 hours, 4 hours and 6 hours was measured.
Again the rats were regrouped and fasted for 18 hours. The above procedure was followed for 5 days. The average cumulative food intake by the rats on the last 3 days was calculated. Animals were randomized on the basis of their previous three days food intake. On the day of experiment the rats were orally treated test compounds or vehicle. After 60 minutes, the feed was provided to the rats and the food intake at 1 hour, 2 hours, 4 hours and 6 hours was measured. The food intake by the rats treated with test compound was compared with the vehicle treated group by using Unpaired Student's t test.

[4] = male, Wistar, rat, whole blood, iv, 1 mg/kg
[5] = male, Wistar, rat, whole blood, po, 3 mg/kg
[6] = male, Wistar, rat, whole blood, po, 10 mg/kg
[7] = Wistar/Male rat, Intravenous, 1 mg/kg, vehicle water, blood
[8] = Wistar/Male rat, Per Oral, 3 mg/kg, vehicle water, blood
[9] = Wistar/Male rat, per oral 3 mg/kg vs intravenous 1 mg/kg

## O=C(CNc1ccc(OC2CCN(C3CCC3)CC2)cc1)N1CCOCC1 [Example 2, 2-[4-(1-Cyclobutylpiperidin-4-yloxy)phenylamino]-1-(morpholin-4-yl)ethanone hydrochloride]
[1]
  Ki: 6.4 nM

## Cl.Cl.O=C(CN1CCOCC1)Nc1ccc(OC2CCN(C3CCC3)CC2)cc1F [Example 3, N-[4-(1-Cyclobutylpiperidin-4-yloxy)-2-fluorophenyl]-2-(morpholin-4-yl)acetamide dihydrochloride]
[1]
  Ki: 14.9 nM
Male Wister rats; 3 mg/kg p.o.
  Inference: Active
  Exploration time mean ± S.E.M, Familiar object: 6.77 ± 0.44 s
  Exploration time mean ± S.E.M, Novel object: 12.49 ± 1.59 s
[2]
  Kp: 2.07 ± 0.07
[3]; [4]
  AUC(0-t): 173 ± 60 ng·h/mL
  half-life: 0.56 ± 0.19 h
[3]; [5]
  AUC(0-t): 174 ± 43 ng·h/mL
  Cmax: 129 ± 34 ng/mL
  Tmax: 0.42 ± 0.14 h
  bioavailability: 35 ± 5%
  half-life: 1.46 ± 0.75 h

## O=C(CN1CCCCC1)Nc1ccc(OC2CCN(C3CCC3)CC2)cc1C(F)(F)F [Example 7, N-[4-(1-Cyclobutylpiperidin-4-yloxy)-2-trifluoromethylphenyl]-2-(piperidin-1-yl) acetamide]
[1]
  Ki: 14.8 nM

## Cc1cc(OC2CCN(C(C)C)CC2)ccc1NC(=O)CN1CCCC1 [Example 10, N-[4-(1-Isopropyl-piperidin-4-yloxy)-2-methylphenyl]-2-(pyrrolidin-1-yl) acetamide]
[1]
  Ki: 8.4 nM

## Cc1cc(OC2CCN(C3CCC3)CC2)ccc1NC(=O)CN1CCCC1 [Example 11, N-[4-(1-Cyclobutylpiperidin-4-yloxy)-2-methylphenyl]-2-(pyrrolidin-1-yl) acetamide]
[1]
  Ki: 1.9 nM
[3]; male, Wistar, rat, whole blood, iv, 5 mg/kg
  AUC(0-t): 3340 ± 656 ng·h/mL
[3]; [6]
  AUC(0-t): 1350 ± 569 ng·h/mL
  Cmax: 122 ± 55 ng/mL
  Tmax: 4 ± 1.76 h
  bioavailability: 20 ± 9%

## Cc1cc(OC2CCN(C3CCCC3)CC2)ccc1NC(=O)CN1CCCCC1 [Example 12, N-[4-(1-Cyclopentylpiperidin-4-yloxy)-2-methylphenyl]-2-(piperidin-1-yl) acetamide]
[1]
  Ki: 7.5 nM

## Cc1cc(OC2CCN(C3CCC3)CC2)ccc1NC(=O)CN1CCCCC1 [Example 13, N-[4-(1-Cyclobutylpiperidin-4-yloxy)-2-methylphenyl]-2-(piperidin-1-yl) acetamide]
[1]
  Ki: 3.3 nM
rats
  Inhibition of food intake: 30 mg/kg, p.o.

## CN(C(=O)CN1CCOCC1)c1ccc(OC2CCN(C3CCC3)CC2)cc1 [Example 14, N-[4-(1-Cyclobutylpiperidin-4-yloxy)phenyl]-N-methyl-2-(morpholin-4-yl) acetamide]
[1]
  Ki: 4.9 nM

## Cc1cc(OC2CCN(C3CCCC3)CC2)ccc1NC(=O)CN1CCC[C@H]1C [Example 15, N-[4-(1-Cyclopentylpiperidin-4-yloxy)-2-methylphenyl]-2-(R-2-methylpyrrolidin-1-yl) acetamide]
[1]
  Ki: 4 nM

## Cc1cc(OC2CCN(C3CCC3)CC2)ccc1NC(=O)CN1CCC[C@H]1C [Example 16, N-[4-(1-Cyclobutylpiperidin-4-yloxy)-2-methylphenyl]-2-(R-2-methylpyrrolidin-1-yl) acetamide]
[1]
  Ki: 2.4 nM
rats
  Inhibition of food intake: ≧30 mg/kg, p.o.

## O=C(CN1CCC(O)CC1)Nc1ccc(OC2CCN(C3CCC3)CC2)cc1 [Example 19, N-[4-(1-Cyclobutylpiperidin-4-yloxy)phenyl]-2-(4-hydroxypiperidin-1-yl) acetamide]
[1]
  Ki: 6.4 nM
[3]; [4]
  AUC(0-t): 347 ± 44 ng·h/mL
  half-life: 17 ± 4.5 h
[3]; [5]
  AUC(0-t): 838 ± 96 ng·h/mL
  Cmax: 67 ± 11 ng/mL
  Tmax: 2.67 ± 1.15 h
  bioavailability: 81 ± 12%
  half-life: 12.8 ± 2.48 h

## O=C(CN1CCCC1)Nc1ccc(OC2CCN(C3CCC3)CC2)cc1 [Example 21, N-[4-(1-Cyclobutylpiperidin-4-yloxy)-phenyl]-2-(pyrrolidin-1-yl) acetamide]
[1]
  Ki: 1.1 nM
rats
  Inhibition of food intake: ≧30 mg/kg, p.o.

## CC(C)N1CCC(Oc2ccc(NC(=O)CN3CCOCC3)cc2)CC1 [Example 22, N-[4-(1-Isopropylpiperidin-4-yloxy)-phenyl]-2-(morpholin-4-yl) acetamide]
[1]
  Ki: 8.3 nM
Male Wister rats; 1 mg/kg p.o.
  Inference: Active
  Exploration time mean ± S.E.M, Familiar object: 7.12 ± 1.51 s
  Exploration time mean ± S.E.M, Novel object: 16.50 ± 2.37 s
[3]; [7]
  AUCt: 340 ± 60 ng·h/mL
[3]; [8]
  AUCt: 850 ± 61 ng·h/mL
  Tmax: 0.42 ± 0.14 h
[3]; [9]
  bioavailability: 85 ± 12%
[3]; [5]
  Cmax: 376 ± 27 ng/mL
rats
  Inhibition of food intake: 60 mg/kg, p.o.

## O=C(CN1CCOCC1)Nc1ccc(OC2CCN(C3CC3)CC2)cc1 [Example 23, N-[4-(1-Cyclopropylpiperidin-4-yloxy)phenyl]-2-(morpholin-4-yl) acetamide]
[3]; [7]
  AUCt: 338 ± 29 ng·h/mL
  T1/2: 1.13 ± 0.02 h
[3]; [8]
  AUCt: 556 ± 111 ng·h/mL
  Cmax: 389 ± 29 ng/mL
  T1/2: 1.23 ± 0.53 h
  Tmax: 0.50 ± 0.00 h
[3]; [9]
  bioavailability: 55 ± 10%

## CC(C)N1CCCN(CC(=O)Nc2ccc(OC3CCN(C4CCC4)CC3)cc2)CC1 [Example 24, N-[4-(1-Cyclobutylpiperidin-4-yloxy)phenyl]-2-(4-isopropyl[1,4]diazepan-1-yl) acetamide]
[1]
  Ki: 1 nM

## O=C(CN1CCOC(CO)C1)Nc1ccc(OC2CCN(C3CCC3)CC2)cc1 (stereo not drawn) [Example 25, N-[4-(1-Cyclobutylpiperidin-4-yloxy)phenyl]-2-(2-hydroxymethylmorpholin-4-yl) acetamide]
[1]
  Ki: 4.05 nM

## O=C(CCN1CCOCC1)Nc1ccc(OC2CCN(C3CCC3)CC2)cc1 [Example 26, N-[4-(1-Cyclobutylpiperidin-4-yloxy)phenyl]-3-(morpholin-4-yl) propionamide]
[1]
  Ki: 6.7 nM

## O=C(CN1CCCCC1)Nc1ccc(OC2CCN(C3CCCC3)CC2)cc1 [Example 27, N-[4-(1-Cyclopentylpiperidin-4-yloxy)phenyl]-2-(piperidin-1-yl) acetamide dihydrochloride]
[1]
  Ki: 4.1 nM

## O=C(CN1CCCC1)Nc1ccc(OC2CCN(C3CCCC3)CC2)cc1 [Example 28, N-[4-(1-Cyclopentylpiperidin-4-yloxy)phenyl]-2-(pyrrolidin-1-yl) acetamide dihydrochloride]
[1]
  Ki: 3.8 nM

## O=C(CN1CCCCC1)Nc1ccc(OC2CCN(C3CCC3)CC2)cc1 [Example 29, N-[4-(1-Cyclobutylpiperidin-4-yloxy)phenyl]-2-(piperidin-1-yl) acetamide]
[1]
  Ki: 1.6 nM

## CC(=O)N(CCN1CCOCC1)c1ccc(OC2CCN(C3CC3)CC2)cc1 [Example 38, N-[4-(1-Cyclopropylpiperidin-4-yloxy)phenyl]-N-[2-(morpholin-4-yl)ethyl] acetamide L(+) tartarate]
[1]
  Ki: 6.6 nM

## CC(=O)N1CCN(CC(=O)Nc2ccc(OC3CCN(C4CCC4)CC3)cc2)CC1 [Example 39, N-[4-(1-Cyclobutylpiperidin-4-yloxy)phenyl]-2-(1-acetylpiperazin-4-yl) acetamide]
[1]
  Ki: 5.39 nM

Source: patent US9079888B2, “Compounds as histamine H3 receptor ligands” (Suven Life Sciences Limited, priority 2011, dated 2015)
